In US20260022142A1, “MACROCYCLIC IMMUNOMODULATORS” (Bristol-Myers Squibb Company, priority 2022, published 2026):
Numbered stars: 1 amine (or outer) side, 2 acyl side, 3 side chain; on linkers, the order of the positions; unused ones are H or OH. Bridge positions count the residues as written; N and C are the ends. Square brackets hold non-standard residues; d marks the D form. Peptide text beside a SMILES is read from it. * marks the point of attachment. ξ: configuration not given here. X2 = CC(C)C[C@H](N[*:1])C(=O)C[C@H](C(=O)[*:2])C(C)C; Bip = N[CH](Cc1ccc(-c2ccccc2)cc1)C(=O)O; Phe(3-Me) = Cc1cccc(C[C@H](N)C(=O)O)c1; γGlu = O=C(O)[C@H](CCC(=O)[*:2])N[*:1]; Bta = N[C@@H](Cc1csc2ccccc12)C(=O)O; hArg = N=C(N)NCCCC[C@H](N)C(=O)O; 4Pal = N[CH](Cc1ccncc1)C(=O)O; Cha = N[CH](CC1CCCCC1)C(=O)O; Ile(3ξ) = CCC(C)[C@H](N)C(=O)O; aThr = C[C@H](O)[C@H](N)C(=O)O; Thr(3ξ) = CC(O)[C@H](N)C(=O)O; dOrn = NCCC[C@@H](N)C(=O)O; dDab = NCC[C@@H](N)C(=O)O; Carboxymethyl = O=C(O)C*; Orn = NCCC[CH](N)C(=O)O; Aun = NCCCCCCCCCCC(=O)O; Dab = NCC[CH](N)C(=O)O; AEEA = NCCOCCOCC(=O)O

Biological target: T1, PD-1/PD-L1 interaction (PE-labeled human PD-L1-Ig binding to Jurkat cell line over-expressing human PD-1) (Homo sapiens, UniProt Q15116)
T1 construct: expressed in transfected cells; host or cells: Jurkat
Assay: Jurkat-PD-1 Cell Binding High-Content Screening Assay (CBA)
Type: cell-based
Settings: Jurkat cell line over-expressing human PD-1; PE-labeled PD-L1-Ig 20 nM final; read-out: Jurkat hPD1-PDL1 IC50
Outline: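 First, compound is added to PD-1-expressing Jurkat cells in serum-containing DMEM and left 2 h at 37° C. Next, PE-conjugated PD-L1-Ig is introduced at 20 nM final concentration for 1 hour. Finally, cells are fixed in 4% paraformaldehyde with Hoechst 33342, washed and imaged.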

T1 sequence (Q15116 25-288): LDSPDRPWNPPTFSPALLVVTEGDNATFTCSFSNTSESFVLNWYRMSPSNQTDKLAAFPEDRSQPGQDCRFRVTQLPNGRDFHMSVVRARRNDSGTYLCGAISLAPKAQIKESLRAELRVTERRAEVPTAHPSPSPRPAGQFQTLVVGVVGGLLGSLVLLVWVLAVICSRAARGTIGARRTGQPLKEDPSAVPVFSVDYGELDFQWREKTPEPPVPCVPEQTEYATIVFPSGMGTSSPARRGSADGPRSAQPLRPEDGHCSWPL

| SMILES | IC50 [nM] |
| --- | --- |
| CC(C)C[C@H]1NC(=O)[C@H](CCCN)NC(=O)[C@H](C(C)C)NC(=O)[C@H](Cc2ccc(-c3ccccc3)cc2)NC(=O)[C@H](C(C)C)NC(=O)[C@H](Cc2csc3ccccc23)NC(=O)[C@H](CC(=O)O)NC(=O)[C@H](Cc2ccc(OCC(=O)O)cc2)NC(=O)[C@H](CCCCNC(=N)N)NC(=O)CSC[C@@H](C(=O)NCCOCCOCC(=O)N[C@@H](CCCN)C(=O)NCCCCCCCCCCC(=O)O)NC(=O)[C@H](CO)NC(=O)[C@H](C(C)C)NC(=O)[C@H](CC2CCCCC2)NC(=O)[C@H](CCN)NC1=O [Compound 3066] ({CH2CO}-[hArg]Y(Carboxymethyl)D[Bta]V[Bip]V[Orn][dL][Dab][Cha]VSC[AEEA][Orn][Aun]-OH; thioether N-14) | 17.1 |
| CC(C)C[C@H]1NC(=O)[C@H](CCCCN)NC(=O)[C@H](C(C)C)NC(=O)[C@H](Cc2ccc(-c3ccccc3)cc2)NC(=O)[C@H](C(C)C)NC(=O)[C@H](Cc2c[nH]c3ccccc23)NC(=O)[C@H](CC(=O)O)NC(=O)[C@H](Cc2ccc(OCC(=O)O)cc2)NC(=O)[C@H](CC(N)=O)NC(=O)CSC[C@@H](C(=O)NCCOCCOCC(=O)N[C@@H](CCCN)C(=O)NCCCCCCCCCCC(=O)O)NC(=O)[C@H](CO)NC(=O)[C@H](C(C)C)NC(=O)[C@H](CC2CCCCC2)NC(=O)[C@H](CCN)NC1=O [Compound 3070] ({CH2CO}-NY(Carboxymethyl)DWV[Bip]VK[dL][Dab][Cha]VSC[AEEA][Orn][Aun]-OH; thioether N-14) | 5.1 |
| CC(C)C[C@@H]1NC(=O)[C@H](CCN)NC(=O)[C@@H](CC(C)C)NC(=O)[C@H](CCN)NC(=O)[C@H](C(C)C)NC(=O)[C@H](Cc2ccc(-c3ccccc3)cc2)NC(=O)[C@H](CC(C)C)NC(=O)[C@H](Cc2c[nH]c3ccccc23)NC(=O)[C@H](CC(=O)O)NC(=O)[C@H](Cc2ccc(OCC(=O)O)cc2)NC(=O)[C@H](Cc2ccc(OCC(=O)O)cc2)NC(=O)CSC[C@@H](C(=O)N[C@H](CCCN)C(=O)NCCOCCOCC(=O)NCCCCCCCCCCC(=O)O)NC(=O)[C@H](CO)NC(=O)[C@H](C(C)C)CC1=O [Compound 3073] ({CH2CO}-Y(Carboxymethyl)Y(Carboxymethyl)DWL[Bip]V[Dab][dL][Dab][X2]SC[dOrn][AEEA][Aun]-OH; thioether N-13) | 17.2 |
| CCC(C)[C@@H]1NC(=O)[C@H](Cc2ccc(-c3ccccc3)cc2)NC(=O)[C@H](C(C)C)NC(=O)[C@H](Cc2c[nH]c3ccccc23)NC(=O)[C@H](CC(=O)O)NC(=O)[C@H](Cc2ccc(OCC(=O)O)cc2)NC(=O)[C@H](CCCCNC(=N)N)NC(=O)CSC[C@@H](C(=O)NCCOCCOCC(=O)N[C@@H](CCCCN)C(=O)NCCCCCCCCCCC(=O)O)NC(=O)[C@H](CO)NC(=O)[C@H](C(C)C)NC(=O)[C@H](CC2CCCCC2)NC(=O)[C@H](CCN)NC(=O)[C@@H](CC(C)C)NC(=O)[C@H](CCCN)NC1=O (stereo partly drawn) [Compound 3082] ({CH2CO}-[hArg]Y(Carboxymethyl)DWV[Bip][Ile(3ξ)][Orn][dL][Dab][Cha]VSC[AEEA]K[Aun]-OH; thioether N-14) | 11.3 |
| CCC(C)[C@@H]1NC(=O)[C@H](Cc2ccc(-c3ccccc3)cc2)NC(=O)[C@H](C(C)C)NC(=O)[C@H](Cc2c[nH]c3ccccc23)NC(=O)[C@H](CC(=O)O)NC(=O)[C@H](Cc2ccc(OCC(=O)O)cc2)NC(=O)[C@H]([C@H](C)O)NC(=O)CSC[C@@H](C(=O)NCCOCCOCC(=O)N[C@@H](CCCCN)C(=O)NCCCCCCCCCCC(=O)O)NC(=O)[C@H](CO)NC(=O)[C@H](C(C)C)NC(=O)[C@H](CC(C)C)NC(=O)[C@H](CCN)NC(=O)[C@@H](CC(C)C)NC(=O)[C@H](CCCN)NC1=O (stereo partly drawn) [Compound 3083] ({CH2CO}-[aThr]Y(Carboxymethyl)DWV[Bip][Ile(3ξ)][Orn][dL][Dab]LVSC[AEEA]K[Aun]-OH; thioether N-14) | 26.2 |
| CCC(C)[C@@H]1NC(=O)[C@H](Cc2ccc(-c3ccccc3)cc2)NC(=O)[C@H](C(C)C)NC(=O)[C@H](Cc2cccc(C)c2)NC(=O)[C@H](CC(=O)O)NC(=O)[C@H](Cc2ccc(OCC(=O)O)cc2)NC(=O)[C@H](C(C)O)NC(=O)CSC[C@@H](C(=O)N[C@H](CCN)C(=O)NCCCCCCCCCCC(=O)O)NC(=O)[C@H](C(C)O)NC(=O)[C@H](C(C)C)NC(=O)[C@H](CC2CCCCC2)NC(=O)[C@H](CCN)NC(=O)[C@@H](CC(C)C)NC(=O)[C@H](CCCN)NC1=O (some centres unmarked) [Compound 3091] | 26.9 |

More lines, in order of falling IC50, values ahead:

| IC50 [nM] | SMILES |
| --- | --- |
| 99.8 | CCC(C)[C@@H]1NC(=O)[C@H](Cc2ccc(-c3ccccc3)cc2)NC(=O)[C@H](C(C)C)NC(=O)[C@H](Cc2c[nH]c3ccccc23)NC(=O)[C@H](CC(=O)O)NC(=O)[C@H](Cc2ccc(OCC(=O)O)cc2)NC(=O)[C@H](C(C)O)NC(=O)CSC[C@@H](C(=O)N[C@H](CCCN)C(=O)NCCOCCOCC(=O)NCCCCCCCCCCC(=O)O)NC(=O)[C@H](CO)NC(=O)[C@H](C(C)C)NC(=O)[C@H](CC(C)C)NC(=O)[C@H](CCN)NC(=O)[C@@H](CC(C)C)NC(=O)[C@H](CCCN)NC1=O (stereo partly drawn) [Compound 3090] ({CH2CO}-[Thr(3ξ)]Y(Carboxymethyl)DWV[Bip][Ile(3ξ)][Orn][dL][Dab]LVSC[dOrn][AEEA][Aun]-OH; thioether N-14) |
| 41 | CC(C)C[C@H]1NC(=O)[C@H](CCCN)NC(=O)[C@H](C(C)C)NC(=O)[C@H](Cc2ccc(-c3ccccc3)cc2)NC(=O)[C@H](C(C)C)NC(=O)[C@H](Cc2csc3ccccc23)NC(=O)[C@H](CC(=O)O)NC(=O)[C@H](Cc2ccc(OCC(=O)O)cc2)NC(=O)[C@H](CCCCNC(=N)N)NC(=O)CSC[C@@H](C(=O)N[C@@H](CCCN)C(=O)NCCCCCCCCCCC(=O)O)NC(=O)[C@H](CO)NC(=O)[C@H](C(C)C)NC(=O)[C@H](CC2CCCCC2)NC(=O)[C@H](CCN)NC1=O [Compound 3067] ({CH2CO}-[hArg]Y(Carboxymethyl)D[Bta]V[Bip]V[Orn][dL][Dab][Cha]VSC[Orn][Aun]-OH; thioether N-14) |
| 39.2 | CCC(C)C1NC(=O)C(Cc2ccc(-c3ccccc3)cc2)NC(=O)C(CC(C)C)NC(=O)C(Cc2c[nH]c3ccccc23)NC(=O)C(CC(=O)O)NC(=O)C(Cc2ccc(OCC(=O)O)cc2)NC(=O)C(Cc2ccncc2)NC(=O)CSCC(C(=O)NCCOCCOCC(=O)NC(CCCN)C(=O)NCCCCCCCCCCC(=O)O)NC(=O)C(C(C)O)NC(=O)C(C(C)C)NC(=O)C(CC2CCCCC2)NC(=O)C(CCN)NC(=O)C(CC(C)C)NC(=O)C(CCCN)NC1=O (centres unmarked) [Compound 3089] ({CH2CO}-[4Pal]Y(Carboxymethyl)DWL[Bip]I[Orn]L[Dab][Cha]VTC[AEEA][Orn][Aun]-OH; thioether N-14; configuration not given here) |
| 22 | CCC(C)[C@@H]1NC(=O)[C@H](Cc2ccc(-c3ccccc3)cc2)NC(=O)[C@H](C(C)C)NC(=O)[C@H](Cc2cccc(C)c2)NC(=O)[C@H](CC(=O)O)NC(=O)[C@H](Cc2ccc(OCC(=O)O)cc2)NC(=O)[C@H](C(C)O)NC(=O)CSC[C@@H](C(=O)N[C@H](CCN)C(=O)NCCCCCCCCCCCC(=O)O)NC(=O)[C@H](C(C)O)NC(=O)[C@H](C(C)C)NC(=O)[C@H](CC2CCCCC2)NC(=O)[C@H](CCN)NC(=O)[C@@H](CC(C)C)NC(=O)[C@H](CCCN)NC1=O (some centres unmarked) [Compound 3092] |
| 20.7 | CCC(C)[C@@H]1NC(=O)[C@H](Cc2ccc(-c3ccccc3)cc2)NC(=O)[C@H](CC(C)C)NC(=O)[C@H](Cc2c[nH]c3ccccc23)NC(=O)[C@H](CC(=O)O)NC(=O)[C@H](Cc2ccc(OCC(=O)O)cc2)NC(=O)[C@H]([C@H](C)O)NC(=O)CSC[C@@H](C(=O)NCCOCCOCC(=O)N[C@@H](CCCCN)C(=O)NCCCCCCCCCCC(=O)O)NC(=O)[C@H](CO)NC(=O)[C@H](C(C)C)NC(=O)[C@H](CC(C)C)NC(=O)[C@H](CCN)NC(=O)[C@@H](CC(C)C)NC(=O)[C@H](CCCN)NC1=O (stereo partly drawn) [Compound 3081] ({CH2CO}-[aThr]Y(Carboxymethyl)DWL[Bip][Ile(3ξ)][Orn][dL][Dab]LVSC[AEEA]K[Aun]-OH; thioether N-14) |
| 17.2 | CC(C)C[C@@H]1NC(=O)[C@H](CCN)NC(=O)[C@@H](CC(C)C)NC(=O)[C@H](CCCN)NC(=O)[C@H](C(C)C)NC(=O)[C@H](Cc2ccc(-c3ccccc3)cc2)NC(=O)[C@H](CC(C)C)NC(=O)[C@H](Cc2c[nH]c3ccccc23)NC(=O)[C@H](CC(=O)O)NC(=O)[C@H](Cc2ccc(OCC(=O)O)cc2)NC(=O)[C@H](Cc2ccc(OCC(=O)O)cc2)NC(=O)CSC[C@@H](C(=O)N[C@H](CCN)C(=O)NCCOCCOCC(=O)NCCCCCCCCCCC(=O)O)NC(=O)[C@H](CO)NC(=O)[C@H](C(C)C)CC1=O [Compound 3071] ({CH2CO}-Y(Carboxymethyl)Y(Carboxymethyl)DWL[Bip]V[Orn][dL][Dab][X2]SC[dDab][AEEA][Aun]-OH; thioether N-13) |
| 13.5 | CC(C)C[C@@H]1NC(=O)[C@H](CCN)NC(=O)[C@@H](CC(C)C)NC(=O)[C@H](CCCN)NC(=O)[C@H](C(C)C)NC(=O)[C@H](Cc2ccc(-c3ccccc3)cc2)NC(=O)[C@H](CC(C)C)NC(=O)[C@H](Cc2c[nH]c3ccccc23)NC(=O)[C@H](CC(=O)O)NC(=O)[C@H](Cc2ccncc2)NC(=O)[C@H](Cc2ccc(OCC(=O)O)cc2)NC(=O)CSC[C@@H](C(=O)N[C@H](CCN)C(=O)NCCOCCOCC(=O)NCCCCCCCCCCC(=O)O)NC(=O)[C@H](CO)NC(=O)[C@H](C(C)C)CC1=O [Compound 3072] ({CH2CO}-Y(Carboxymethyl)[4Pal]DWL[Bip]V[Orn][dL][Dab][X2]SC[dDab][AEEA][Aun]-OH; thioether N-13) |
| 12 | CCC(C)[C@@H]1NC(=O)[C@H](Cc2ccc(-c3ccccc3)cc2)NC(=O)[C@H](CC(C)C)NC(=O)[C@H](Cc2cccc(C)c2)NC(=O)[C@H](CC(=O)O)NC(=O)[C@H](Cc2ccc(OCC(=O)O)cc2)NC(=O)[C@H](Cc2ccc(OCC(=O)O)cc2)NC(=O)CSC[C@@H](C(=O)NCCOCCOCC(=O)N[C@@H](CCC(=O)NCCCCCCCCCCC(=O)O)C(=O)O)NC(=O)[C@H](CO)NC(=O)[C@H](C(C)C)NC(=O)[C@H](CC(C)C)NC(=O)[C@H](CCN)NC(=O)[C@@H](CC(C)C)NC(=O)[C@H](CCCN)NC1=O (stereo partly drawn) [Compound 3085] ({CH2CO}-Y(Carboxymethyl)Y(Carboxymethyl)D[Phe(3-Me)]L[Bip][Ile(3ξ)][Orn][dL][Dab]LVSC[AEEA][γGlu][Aun]-OH; thioether N-14) |
